Tested on: GFP-14-3-3β
Assay: GFP-14-3-3β co-IP with LC-MS/MS, untreated GFP-14-3-3β versus GFP control (14-3-3 interactome)
Type: binding, human
Conditions: log2 difference; pairwise comparison untreated vs GFP, label-free quantification, 3 replicates each

Substance: PP1c: recombinant catalytic subunit of PP1
- Difference (log2), untreated vs GFP: 1.715

Source: paper PMC7367873, “Dissecting the sequence determinants for dephosphorylation by the catalytic subunits of phosphatases PP1 and PP2A” (Nature Communications, 2020)
